Source: patent publication US5324648A, “Substituted isocoumarins as serine protease inhibitors and anti-inflammatory agents” (Georgia Tech Research Corporation, priority 1992, dated 1994)
Like-named read-outs stand apart in the source and are kept apart here.

Assays:
human factor Xa = molecular target: T1, human factor Xa (Homo sapiens, UniProt P00742); test: Inactivation rate of human factor Xa; assay type: biochemical; settings: pH 7.5, 25° C, read-out: kobs/[I]
T1 construct: human factor Xa
Outline: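 Enzyme 0.01-2.3 μM, 0.1M Hepes/0.01M CaCl2 pH 7.5, 8-12% Me2SO, 25° C; inhibitor added, timed aliquots assayed for remaining activity; kobs = slope of ln(vt/vo) vs t.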

Bb = molecular target: T2, Bb (Homo sapiens, UniProt P00751); test: Inactivation rate of complement fragment Bb; assay type: biochemical; settings: Table II; pH 7.5, 25° C; [I] 0.05 to 1.25 mM; read-out: kobs/[I]
T2 construct: active fragments C2a, Bb
T2 sequence (P00751 260-764 limits assumed): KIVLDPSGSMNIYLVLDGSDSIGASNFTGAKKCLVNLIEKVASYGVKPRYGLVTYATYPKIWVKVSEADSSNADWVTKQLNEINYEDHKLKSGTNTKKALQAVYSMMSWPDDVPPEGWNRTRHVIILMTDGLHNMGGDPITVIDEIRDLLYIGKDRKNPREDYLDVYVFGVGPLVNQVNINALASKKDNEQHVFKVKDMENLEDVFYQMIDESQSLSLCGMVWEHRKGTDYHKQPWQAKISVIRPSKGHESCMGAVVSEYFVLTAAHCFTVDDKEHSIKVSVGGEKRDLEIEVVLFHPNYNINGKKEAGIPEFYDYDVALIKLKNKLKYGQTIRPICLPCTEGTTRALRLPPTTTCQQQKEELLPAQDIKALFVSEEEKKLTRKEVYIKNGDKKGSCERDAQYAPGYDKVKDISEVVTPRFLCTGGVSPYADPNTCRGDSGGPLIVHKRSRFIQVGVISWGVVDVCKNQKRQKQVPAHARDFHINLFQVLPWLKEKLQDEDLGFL
Method: (§1) Inactivation rates of serine proteases by substituted isocoumarins were measured by the incubation method. An aliquot of inhibitor (25 or 50 μl) in Me2 SO was added to a buffered enzyme solution (0.01-2.3 μM) to initiate the inactivation. Aliquots (50 μl) were withdrawn at various intervals and the residual enzymatic activity was measured. Me2 SO concentration in the reaction mixture was 8-12% (v/v). 0.1 Hepes, 0.01M CaCl2, pH 7.5 buffer was utilized for trypsin and coagulation enzymes. 0.1M Hepes, 0.5M NaCl, pH 7.5 was utilized for other serine proteases. The inhibitor concentrations are shown in all the tables. Peptide thioesters or peptide nitroanilides with appropriate sequence were used as substrates for various serine proteases. All peptide thioester hydrolysis rates were measured with assay mixtures containing 4,4'-dithiodipyridine (ε324 =19800M^-1 cm^-1; Grasetti & Murray, Arch. Biochem. Biophys. 119, pp 41-49 (1967)). Peptide 4-nitroanilide nitroanilide hydrolysis was measured at 410 nm (ε410 =8800M^-1 cm^-1; Erlanger et al., Arch. Biochem. Biophys. 95, pp 271-278 (1961)). First order inactivation rate constant (kobs) were obtained from plots of ln (vt /vo) vs time, and the correlation coefficients were greater than 0.98.
(§2) ^a Conditions were 0.1M Hepes, 0.5M NaCl, pH 7.5, 8-10% Me2 SO
(§3) and 25° C. Inactivation rates were measured by incubation method.
(§4) Enzyme concentrations were as follows: protein D, 1-9 μM; C2, 0.7-1
(§5) μM; B, 1.8 μM; Bb, 0.3-0.8 μM; Cl^- s, 0.07 μM; Cl^-

[1] = Spontaneous hydrolysis in human plasma; assay type: in vitro ADME; settings: for half-life: human plasma, read-out: t1/2 for spontaneous hydrolysis
human granzyme A = molecular target: T3, human granzyme A (Homo sapiens, UniProt P12544); test: Inactivation rate of human granzyme A; assay type: biochemical; settings: Table VII; pH 7.5, 25° C; [I] 0.4 to 45 μM; read-out: kobs/[I]
T3 construct: human cytotoxic lymphocyte granzyme A; endogenous in cells; host or cells: human cytotoxic lymphocytes
T3 sequence (P12544 29-262): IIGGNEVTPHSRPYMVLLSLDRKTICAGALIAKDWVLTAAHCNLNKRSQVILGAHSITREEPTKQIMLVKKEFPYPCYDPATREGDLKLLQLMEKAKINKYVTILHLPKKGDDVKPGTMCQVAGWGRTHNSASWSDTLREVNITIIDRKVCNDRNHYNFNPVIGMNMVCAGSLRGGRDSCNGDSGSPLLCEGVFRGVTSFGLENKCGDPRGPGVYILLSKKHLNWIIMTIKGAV
Method: as §1
^a Inactivation rates were measured at 0.1M Hepes, 0.01M CaCl2,
pH 7.5, 8% Me2 SO and 25° C. by incubation method. ZArg-SBzl
(74-85 μM) was used as the substrate to monitor the residual enzymatic

human factor VIIa = molecular target: T4, human factor VIIa (Homo sapiens, UniProt P08709); test: Inactivation rate of human factor VIIa; assay type: biochemical; settings: Table I; pH 7.5, 25° C; [I] 5 to 44 μM; read-out: kobs/[I]
T4 construct: human factor VIIa
T4 sequence (P08709 213-466 limits assumed): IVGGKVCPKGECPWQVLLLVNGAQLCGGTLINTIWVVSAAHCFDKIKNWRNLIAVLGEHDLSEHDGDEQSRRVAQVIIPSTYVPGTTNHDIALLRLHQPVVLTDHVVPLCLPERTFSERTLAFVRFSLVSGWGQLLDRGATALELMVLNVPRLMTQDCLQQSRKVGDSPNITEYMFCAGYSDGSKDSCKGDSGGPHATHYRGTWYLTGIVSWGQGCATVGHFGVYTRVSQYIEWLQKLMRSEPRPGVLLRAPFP
T4 sequence (P08709 61-212 partner limits assumed): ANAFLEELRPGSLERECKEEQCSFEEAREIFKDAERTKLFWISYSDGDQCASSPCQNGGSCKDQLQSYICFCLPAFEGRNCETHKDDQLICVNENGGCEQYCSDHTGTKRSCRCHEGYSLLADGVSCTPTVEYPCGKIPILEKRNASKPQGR

complement protein C2 = molecular target: T5, complement protein C2 (Homo sapiens, UniProt P06681); test: Inactivation rate of complement protein C2; assay type: biochemical; settings: for kinact/KI: Table II, pH 7.5, 25° C, [I] 0.19 to 1.25 mM, read-out: kobs/[I]
T5 sequence (P06681 21-752): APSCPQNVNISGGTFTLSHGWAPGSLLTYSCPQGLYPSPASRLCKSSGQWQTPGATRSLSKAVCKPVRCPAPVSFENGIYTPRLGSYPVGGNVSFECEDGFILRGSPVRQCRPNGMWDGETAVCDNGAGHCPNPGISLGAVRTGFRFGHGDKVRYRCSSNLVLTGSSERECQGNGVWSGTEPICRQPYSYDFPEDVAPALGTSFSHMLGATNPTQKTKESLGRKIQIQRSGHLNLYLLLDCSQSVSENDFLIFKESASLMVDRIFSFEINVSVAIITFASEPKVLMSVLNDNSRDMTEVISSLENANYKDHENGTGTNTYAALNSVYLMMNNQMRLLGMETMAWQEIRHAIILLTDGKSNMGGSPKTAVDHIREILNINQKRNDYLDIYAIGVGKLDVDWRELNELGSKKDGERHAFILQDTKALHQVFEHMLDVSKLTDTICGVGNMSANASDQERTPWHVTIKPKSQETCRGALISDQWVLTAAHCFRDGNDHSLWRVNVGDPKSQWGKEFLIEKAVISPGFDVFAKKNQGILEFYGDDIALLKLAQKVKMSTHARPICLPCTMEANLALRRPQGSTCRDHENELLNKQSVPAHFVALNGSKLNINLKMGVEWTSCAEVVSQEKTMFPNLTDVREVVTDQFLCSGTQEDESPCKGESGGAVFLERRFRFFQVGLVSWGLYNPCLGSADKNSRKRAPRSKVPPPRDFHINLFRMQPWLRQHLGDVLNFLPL
Method: as §1, §2, §3, §4, §5

[2] = Prothrombin time (PT), rabbit plasma
Method: ^a Plasma and inhibitor were incubated at 37° C. for 1 min.,
Dade thromboplastin reagent was then added.
^b Plasma and inhibitor were incubated at 37° C. for 3 min.,
Orthobrain thromboplastin reagent was then added.

T1 sequence (P00742 235-488 limits assumed): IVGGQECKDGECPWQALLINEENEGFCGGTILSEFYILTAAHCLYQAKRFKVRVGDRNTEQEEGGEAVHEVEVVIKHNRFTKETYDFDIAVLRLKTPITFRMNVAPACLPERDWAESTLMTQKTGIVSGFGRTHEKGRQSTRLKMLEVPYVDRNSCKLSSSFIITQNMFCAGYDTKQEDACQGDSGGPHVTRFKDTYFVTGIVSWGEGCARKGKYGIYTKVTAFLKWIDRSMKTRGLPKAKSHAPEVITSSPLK
T1 sequence (P00742 41-179 partner limits assumed): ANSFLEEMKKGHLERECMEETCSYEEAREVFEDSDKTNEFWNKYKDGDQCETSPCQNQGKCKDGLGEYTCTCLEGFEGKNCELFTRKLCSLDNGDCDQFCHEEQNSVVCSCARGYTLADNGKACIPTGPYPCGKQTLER

SMILES	kinact/KI (human factor Xa; Table I, [I] 5 to 105 μM)	kinact/KI (Bb)	half-life [1]	kinact/KI (human granzyme A)	kinact/KI (human factor VIIa)	also measured
COc1oc(=O)c2cc(NC(=N)N)ccc2c1Cl [7-guanidino-4-chloro-3-methoxyisocoumarin]	11000 M⁻¹ s⁻¹	74 M⁻¹ s⁻¹	6.7 min			
NCCCOc1oc(=O)c2ccccc2c1Cl [3-(3-aminopropoxy)-4-chloroisocoumarin]				2010 M⁻¹ s⁻¹		
N=C(N)SCCCOc1oc(=O)c2ccccc2c1Cl [3-(3-isothiureidopropoxy)-4-chloroisocoumarin]		0.8 M⁻¹ s⁻¹	0.5 min	18400 M⁻¹ s⁻¹	450 M⁻¹ s⁻¹	kinact/KI (complement protein C2): 0.5 M⁻¹ s⁻¹
N=C(N)SCCCOc1oc(=O)c2cc(N)ccc2c1Cl [7-amino-4-chloro-3-(3-isothiureidopropoxy)isocoumarin]	60 M⁻¹ s⁻¹		165 min	6750 M⁻¹ s⁻¹	430 M⁻¹ s⁻¹	stability in human plasma (in words) [1]: fairly stable; PT ([2]; [I] 33 μM, 1 min, Dade thromboplastin): 13.7 s; PT ([2]; [I] 131 μM, 1 min, Dade thromboplastin): 62.0 s
N=C(N)Nc1ccc2c(Cl)c(OCCc3ccccc3)oc(=O)c2c1 [7-guanidino-4-chloro-3-(2-phenylethoxy)isocoumarin]	11000 M⁻¹ s⁻¹	58 M⁻¹ s⁻¹	4.5 min			
N=C(N)SCCOc1oc(=O)c2ccccc2c1Cl [3-(2-isothiureidoethoxy)-4-chloroisocoumarin]		15 M⁻¹ s⁻¹				kinact/KI (complement protein C2): 1.5 M⁻¹ s⁻¹
CCOc1oc(=O)c2cc(NC(=N)N)ccc2c1Cl [7-guanidino-3-ethoxy-4-chloroisocoumarin, 7-guanidino-4-chloro-3-ethoxyisocoumarin]	11000 M⁻¹ s⁻¹	95 M⁻¹ s⁻¹	8.2 min	6850 M⁻¹ s⁻¹	2200 M⁻¹ s⁻¹	PT ([2]; [I] 15 μM, 1 min, Dade thromboplastin): 14.2 s; PT ([2]; [I] 31 μM, 1 min, Dade thromboplastin): 27.4 s; PT ([2]; [I] 31 μM, 3 min, Orthobrain thromboplastin): 17.2 s; PT ([2]; [I] 124 μM, 3 min, Orthobrain thromboplastin): > 120 s
O=c1oc(Cl)c(Cl)c2ccccc12 [3,4-dichloroisocoumarin, reference compound]				50 M⁻¹ s⁻¹		inhibition of C2 (in words) (complement protein C2): do not show any inhibition; PT ([2]; [I] 33 μM, 3 min, Orthobrain thromboplastin): 14.3 s
N=C(N)SCCOc1oc(=O)c2cc(NC(=O)Nc3ccccc3)ccc2c1Cl [PhNHCONH-CiTEtOIC, 7-(phenylcarbamoylamino)-4-chloro-3-(2-isothiureidoethoxy)isocoumarin]						kinact/KI (human factor Xa; Table VIII, [I] 3.6-44 μM): 4740 M⁻¹ s⁻¹
